In brackets after ≈: the same amount, converted by molar mass.
Target: T1, intestinal α-glucosidase
T1 construct: gene MAL12; human 5NN8 only used for docking
Assay: sucrose hydrolysis, GOD-POD glucose read-out at […] nm
Format: biochemical
Settings: sucrose as substrate; phosphate buffer pH 7.5; 37 °C

SMILES: C[C@H]1O[C@H](O[C@H]2[C@H](O)[C@@H](O)[C@@H](O[C@H]3[C@H](O)[C@@H](O)C(O)O[C@@H]3CO)O[C@@H]2CO)[C@H](O)[C@@H](O)[C@@H]1N[C@H]1C=C(CO)[C@@H](O)[C@H](O)[C@H]1O (stereo partly shown) [acarbose]
- IC50: 0.089 ± 0.004 µg/mL (≈ 0.138 µM)

From publication PMC11506481, “Influence of Harvesting Stage on Phytochemical Composition, Antioxidant, and Antidiabetic Activity of Immature Ceratonia siliqua L. Pulp from Béni Mellal-Khénifra Region, Morocco: In Silico, In Vitro, and In Vivo Approaches” (Current Issues in Molecular Biology, 2024)
